From patent US20250144094A1 (Erasca, Inc., priority 2021, published 2025)

target: Recombinant human ULK1 (1-649) (Homo sapiens (Human), UniProt O75385); assay: ULK1 ADP Glo kinase activity assay (MBP substrate); conditions: 25° C., 40 minutes, read-out: ULK1 biochemical IC50
Experimental: Recombinant human ULK1 (1-649) protein expressed in Sf9 insect cells was obtained from SignalChem (Vancouver, BC), catalog #U01-11G. Active kinase was purified via N-terminal GST tag to >85% purity.
ADP GLO Kinase Assay Reagents were obtained from Promega Corp (Madison, WI), catalog #V9104.
MBP (myelin basic protein) substrate, bovine, purified, was obtained from Sigma (St. Louis, MO), catalog #M1891.
ULK1 inhibitor potency was determined using the luminescent ADP Glo Kinase Assay (Promega), a universal ADP detection system that measures kinase activity by quantifying the amount of ADP produced during a kinase reaction. ULK1 kinase reactions are performed in a standard 96-well microplate (20 uL reaction volume) at 25° C. for 40 minutes in the presence or absence of the test compound (12-point dilution series starting at 10 uM). Addition of MBP substrate and ATP initiates the kinase reaction.
The standard ADP Glo assay is performed in two steps. In step one, following the kinase reaction, an equal volume of ADP-Glo™ Reagent (20 uL) is added to terminate the kinase reaction and deplete the remaining ATP. In the second step, the Kinase Detection Reagent (10 uL) is added to simultaneously convert ADP to ATP and allow the newly synthesized ATP to be measured using a luciferase/luciferin reaction. Step two of the ADP Glo assay is performed in a white 384-well plate (20 uL final volume). Thirty minutes after the addition of the Detection reagent, light generated from the luciferase reaction is measured (1 second exposure) using a microplate compatible luminometer (CLARIOstar, BMG Labtech).
Inhibition of ULK1 kinase activity is determined for each test compound by comparison to DMSO only control wells. Inhibitor IC50 was calculated by plotting the change in luminescence after 30 minutes (response) versus inhibitor concentration (in log molar) then applying the four-parameter variable slope curve fit (GraphPad Prism). Inhibition of ULK1 in biochemical assay is found in Table 3.

Chain of Recombinant human ULK1 (1-649) (O75385 1-649): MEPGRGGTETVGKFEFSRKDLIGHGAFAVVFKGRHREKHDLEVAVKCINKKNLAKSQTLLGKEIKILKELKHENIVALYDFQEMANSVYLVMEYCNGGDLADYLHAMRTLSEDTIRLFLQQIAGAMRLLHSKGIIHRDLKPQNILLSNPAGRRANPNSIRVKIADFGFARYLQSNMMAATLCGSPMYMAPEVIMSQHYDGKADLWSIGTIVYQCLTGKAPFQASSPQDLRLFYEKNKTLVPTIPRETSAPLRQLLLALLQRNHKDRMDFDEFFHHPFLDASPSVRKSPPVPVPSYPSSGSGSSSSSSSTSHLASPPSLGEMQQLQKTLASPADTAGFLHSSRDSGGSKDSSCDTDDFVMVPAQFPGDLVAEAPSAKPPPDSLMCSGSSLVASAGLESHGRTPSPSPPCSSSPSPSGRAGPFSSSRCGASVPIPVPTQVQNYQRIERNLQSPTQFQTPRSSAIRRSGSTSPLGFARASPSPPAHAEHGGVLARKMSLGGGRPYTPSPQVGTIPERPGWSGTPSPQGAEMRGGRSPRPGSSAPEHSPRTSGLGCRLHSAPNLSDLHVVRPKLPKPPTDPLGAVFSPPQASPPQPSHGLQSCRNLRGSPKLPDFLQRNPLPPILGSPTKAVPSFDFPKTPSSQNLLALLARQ

| IC50 [nM] | SMILES |
| --- | --- |
| 100 to 500 | Cc1c(S(C)(=O)=O)csc1-c1nc(Nc2cc3c(cc2Cl)CNCC3)ncc1C(F)(F)F [Example 79, 7-chloro-N-(4-(3-methyl-4-(methylsulfonyl)thiophen-2-yl)-5-(trifluoromethyl)pyrimidin-2-yl)-1,2,3,4-tetrahydroisoquinolin-6-amine] |
| ≤ 10 | O=S1(=O)NCCOc2sc(-c3nc(Nc4cc5c(cc4Cl)CNCC5)ncc3C(F)(F)F)cc21 [Example 85, 7-chloro-N-[4-(1,1-dioxo-3,4-dihydro-2H-thieno[2,3-b][1,4,5]oxathiazepin-7-yl)-5-(trifluoromethyl)pyrimidin-2-yl]-1,2,3,4-tetrahydroisoquinolin-6-amine] |
| ≤ 10 | CN1CCc2cc(Cl)c(Nc3ncc(C(F)(F)F)c(-c4cc5c(s4)CCCNC5=O)n3)cc2C1 [Example 49, 2-(2-((6-chloro-2-methyl-1,2,3,4-tetrahydroisoquinolin-7-yl)amino)-5-(trifluoromethyl)pyrimidin-4-yl)-5,6,7,8-tetrahydro-4H-thieno[3,2-c]azepin-4-one] |
| ≤ 10 | O=C1NCCCc2sc(-c3nc(Nc4cc5c(cc4Cl)CCNC5)ncc3C(F)(F)F)cc21 [Example 46, 2-(2-((6-chloro-1,2,3,4-tetrahydroisoquinolin-7-yl)amino)-5-(trifluoromethyl)pyrimidin-4-yl)-5,6,7,8-tetrahydro-4H-thieno[3,2-c]azepin-4-one] |
| 10 to 50 | Cc1nn(C2CNC2)cc1Nc1ncc(C(F)(F)F)c(-c2cc(S(C)(=O)=O)cs2)n1 [Example 123, N-(1-(azetidin-3-yl)-3-methyl-1H-pyrazol-4-yl)-4-(4-(methylsulfonyl)thiophen-2-yl)-5-(trifluoromethyl)pyrimidin-2-amine] |
| 10 to 50 | FC(F)(F)c1cnc(Nc2cc3c(cc2Cl)CNCC3)nc1-c1cc(-c2ncco2)cs1 [Example 18, 7-Chloro-N-(4-(4-(oxazol-2-yl)thiophen-2-yl)-5-(trifluoromethyl)pyrimidin-2-yl)-1,2,3,4-tetrahydroisoquinolin-6-amine] |
| 10 to 50 | Cc1nn(C2CN(C)C2)cc1Nc1ncc(C(F)(F)F)c(-c2cc(S(C)(=O)=O)cs2)n1 [Example 120, N-[3-methyl-1-(1-methylazetidin-3-yl)pyrazol-4-yl]-4-(4-methylsulfonyl-2-thienyl)-5-(trifluoromethyl)pyrimidin-2-amine] |
| ≤ 10 | CN1CCc2sc(-c3nc(Nc4cc5c(cc4Cl)CNCC5)ncc3C(F)(F)F)cc2C1=O [Example 21, 2-(2-((7-Chloro-1,2,3,4-tetrahydroisoquinolin-6-yl)amino)-5-(trifluoromethyl)pyrimidin-4-yl)-5-methyl-6,7-dihydrothieno[3,2-c]pyridin-4(5H)-one] |
| ≤ 10 | COCCS(=O)(=O)c1csc(-c2nc(Nc3cc4c(cc3Cl)CNCC4)ncc2C(F)(F)F)c1 [Example 52, 7-chloro-N-(4-(4-((2-methoxyethyl)sulfonyl)thiophen-2-yl)-5-(trifluoromethyl)pyrimidin-2-yl)-1,2,3,4-tetrahydroisoquinolin-6-amine] |
| ≤ 10 | CS(=O)(=O)c1csc(-c2nc(Nc3cc4c(cc3C3CC3)CNC4)ncc2C(F)(F)F)c1 [Example 131, 6-cyclopropyl-N-(4-(4-(methylsulfonyl)thiophen-2-yl)-5-(trifluoromethyl)pyrimidin-2-yl)isoindolin-5-amine] |
| ≤ 10 | CN1CC(N2Cc3cc(Cl)c(Nc4ncc(C(F)(F)F)c(-c5cc(C(N)=O)cs5)n4)cc3C2)C1 [Example 12, 5-(2-((6-chloro-2-(1-methylazetidin-3-yl)isoindolin-5-yl)amino)-5-(trifluoromethyl)pyrimidin-4-yl)thiophene-3-carboxamide] |
| 10 to 50 | COCCN1CCCc2sc(-c3nc(Nc4cc5c(cc4Cl)CNCC5)ncc3C(F)(F)F)cc2C1=O [Example 41, 2-(2-((7-chloro-1,2,3,4-tetrahydroisoquinolin-6-yl)amino)-5-(trifluoromethyl)pyrimidin-4-yl)-5-(2-methoxyethyl)-5,6,7,8-tetrahydro-4H-thieno[3,2-c]azepin-4-one] |
